Eleven compounds from PubChem BioAssay (NCI) can be followed below.

SMILES strings stand for the structures.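 Tested at 5 concentrations; 48 h exposure; 96-well plates; endpoints linearly interpolated, else capped at highest concentration. Here, GI50 denotes the concentration required for 50% inhibition of growth. TGI is the concentration that stops growth completely.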

Test systems include HCT-15 colon; SNB-75 CNS; OVCAR-4 ovarian; CCRF-CEM leukemia; U251 CNS; UACC-62 melanoma; EKVX NSCLC; SK-OV-3 ovarian; SF-295 CNS; NCI-H460 lung.
Holding throughout (assay): NCI anticancer screen, dose series, 48 h

With `O=P(CCCCP(=O)(c1ccccc1)c1ccccc1)(c1ccccc1)c1ccccc1.[Cl][Sn]([Cl])([c]1ccccc1)[c]1ccccc1`, the GI50 in the test with HCT-15 colon was 1.23 µM; in the test on SNB-75 CNS it was 1.57 µM; in the test with OVCAR-4 ovarian, 1.54 µM; in the test on CCRF-CEM leukemia it was 0.224 µM; in the test on U251 CNS it was 2 µM; with UACC-62 melanoma, 1.59 µM. Further, the GI50 in the test with EKVX NSCLC was 2.71 µM; in the test with SK-OV-3 ovarian it was 6.25 µM; in the test on SF-295 CNS it was 6.36 µM; with NCI-H460 lung, 6.51 µM. The TGI in the test with HCT-15 colon was 3.02 µM; in the test with SNB-75 CNS, 3.29 µM; with OVCAR-4 ovarian, 3 µM; in the test on CCRF-CEM leukemia, 2.39 µM; with U251 CNS, 4.77 µM; with UACC-62 melanoma it was 3.3 µM. For the same compound, the TGI is 7.92 µM with EKVX NSCLC, 19 µM in the test on SK-OV-3 ovarian, 18.3 µM in the test with SF-295 CNS and 15.9 µM in the test with NCI-H460 lung.
Regarding `COc1ccc(/C=C(\C#N)n2nnc3ccccc32)cc1`, the GI50 in the test with HCT-15 colon is 0.0682 µM; with SNB-75 CNS, 0.0327 µM; with OVCAR-4 ovarian it was 0.615 µM; in the test on CCRF-CEM leukemia, 0.295 µM; in the test on U251 CNS it was 0.414 µM; in the test on UACC-62 melanoma, 0.0893 µM. In addition, the GI50 with EKVX NSCLC is 0.431 µM; with SK-OV-3 ovarian, 0.64 µM; in the test with SF-295 CNS it was 0.205 µM; in the test with NCI-H460 lung, 0.322 µM. For the same compound, the TGI with HCT-15 colon is greater than 100 µM; in the test on SNB-75 CNS it was 0.337 µM; in the test on OVCAR-4 ovarian it was greater than 82.5 µM; with CCRF-CEM leukemia it was greater than 100 µM; with U251 CNS, greater than 32.6 µM; in the test with UACC-62 melanoma, 19.7 µM. For the same compound, the TGI is greater than 100 µM with EKVX NSCLC, greater than 40.1 µM in the test on SK-OV-3 ovarian, 6.66 µM in the test with SF-295 CNS and 7.88 µM in the test on NCI-H460 lung.
As to `COC(=O)NN=C1C(C)(C)C(=O)C1(C)C`, the TGI in the test on SNB-75 CNS, with CCRF-CEM leukemia, with U251 CNS, in the test on UACC-62 melanoma, in the test on EKVX NSCLC and with SK-OV-3 ovarian was greater than 100 µM throughout. In addition, the TGI in the test with SF-295 CNS and with NCI-H460 lung was greater than 100 µM each time.
As to `CN(C)CCCN1c2ccccc2C(C)(C)c2ccccc21`, the TGI with HCT-15 colon was 29.8 µM; in the test with SNB-75 CNS it was 24.4 µM; in the test with OVCAR-4 ovarian it was 28.2 µM; in the test with CCRF-CEM leukemia, 53.5 µM; in the test on U251 CNS, 24.9 µM; in the test with UACC-62 melanoma, 25.8 µM. Moreover, the TGI with EKVX NSCLC amounted to 32.6 µM; in the test on SK-OV-3 ovarian it was 29.1 µM; in the test on SF-295 CNS, 32.9 µM; with NCI-H460 lung it was 26.4 µM.
As for `COc1cc(Cl)cc(-c2nn(-c3cccc(NC(=O)Nc4cc(C(F)(F)F)cc(C(F)(F)F)c4)c3)cc2-c2ccncc2)c1`, the GI50 was 0.383 µM in the test on HCT-15 colon; 1.18 µM in the test with SNB-75 CNS; 0.581 µM with OVCAR-4 ovarian; 0.312 µM in the test with CCRF-CEM leukemia; 0.336 µM with U251 CNS; 0.416 µM in the test with UACC-62 melanoma. The GI50 with SK-OV-3 ovarian is 1.22 µM; in the test with SF-295 CNS, 0.622 µM; in the test with NCI-H460 lung, 0.374 µM. The TGI in the test on HCT-15 colon worked out at 2.74 µM; in the test with SNB-75 CNS, 6.86 µM; in the test with OVCAR-4 ovarian, 17.5 µM; with CCRF-CEM leukemia, 1.52 µM; in the test on U251 CNS, 1.36 µM; in the test on UACC-62 melanoma it was 1.71 µM. Also, the figures for the TGI in the test with SK-OV-3 ovarian, in the test with SF-295 CNS and in the test with NCI-H460 lung were 6.68 µM, 2.25 µM and 1.71 µM, respectively.
For the compound `CN1CC[C@]2(C)c3cc(O)ccc3CC3CCCC1C32C` (some centres not stated), the TGI in the test with HCT-15 colon, in the test on SNB-75 CNS, in the test on CCRF-CEM leukemia, in the test on U251 CNS, with UACC-62 melanoma and in the test on EKVX NSCLC was greater than 100 µM in each case. Further, the TGI in the test with SK-OV-3 ovarian, in the test on SF-295 CNS and with NCI-H460 lung was greater than 100 µM each time.
With `CC(=O)OCC(=O)[C@@]12OC(C)(C)O[C@@H]1C[C@H]1[C@@H]3CC=C4C[C@@H](O)CC[C@]4(C)[C@H]3CC[C@@]12C`, the TGI in the test with HCT-15 colon was greater than 100 µM; in the test with SNB-75 CNS, 29.4 µM; in the test with OVCAR-4 ovarian it was greater than 100 µM; with CCRF-CEM leukemia, greater than 100 µM; in the test with U251 CNS it was greater than 100 µM; with UACC-62 melanoma, greater than 100 µM. Further, the TGI in the test with EKVX NSCLC, with SK-OV-3 ovarian and with SF-295 CNS was greater than 100 µM each time.
Regarding `OC(CNCC1CCCO1)Cn1c2ccc(Cl)cc2c2cc(Cl)ccc21` (configuration not stated), the GI50 in the test with HCT-15 colon is 1.67 µM; with SNB-75 CNS, 1.39 µM; in the test on OVCAR-4 ovarian, 1.75 µM; with CCRF-CEM leukemia, 2.28 µM; with U251 CNS, 1.65 µM; with UACC-62 melanoma, 1.78 µM. Further, the GI50 with SK-OV-3 ovarian was 2.08 µM; in the test on SF-295 CNS, 1.78 µM; in the test with NCI-H460 lung it was 1.95 µM. The TGI was 3.26 µM with HCT-15 colon; 2.87 µM with SNB-75 CNS; 4.32 µM in the test with OVCAR-4 ovarian; 4.99 µM with CCRF-CEM leukemia; 3.05 µM with U251 CNS; 3.46 µM in the test on UACC-62 melanoma. For the same compound, the TGI in the test on SK-OV-3 ovarian was determined as 4.19 µM; in the test with SF-295 CNS it was 3.57 µM; in the test on NCI-H460 lung it was 3.75 µM.
With `CN1C(=O)C(CC(=O)O)NC1=S` (configuration not stated), the TGI in the test with HCT-15 colon, in the test with SNB-75 CNS, in the test with CCRF-CEM leukemia, in the test with U251 CNS, with UACC-62 melanoma and with EKVX NSCLC was greater than 100 µM each time. The TGI with SK-OV-3 ovarian, with SF-295 CNS and with NCI-H460 lung was greater than 100 µM in each case.
With `C=C1C(=O)OC2C=C(CCC(C)=O)C(C)C(OC(C)=O)CC12` (configuration not stated), the TGI came to 20.1 µM in the test with HCT-15 colon; 24.4 µM in the test on SNB-75 CNS; 27.7 µM in the test on OVCAR-4 ovarian; 12.4 µM with CCRF-CEM leukemia; 31.1 µM with U251 CNS; 27.4 µM with UACC-62 melanoma. Besides, the TGI in the test with EKVX NSCLC came out at 26 µM; in the test on SF-295 CNS, 40.2 µM; in the test on NCI-H460 lung it was 40.6 µM.
Consider `Fc1ccccc1C1SCc2nc3ccccc3n21` (configuration not stated), for which the TGI in the test on SNB-75 CNS, in the test on CCRF-CEM leukemia, in the test on UACC-62 melanoma, in the test on EKVX NSCLC, in the test on SK-OV-3 ovarian and in the test on SF-295 CNS was greater than 100 µM throughout. This compound registered a TGI in the test on NCI-H460 lung greater than 100 µM.
